Reference: patent publication US20210355121A1, “FUSED TRICYCLIC KRAS INHIBITORS” (Incyte Corporation, priority 2020, published 2021)
pIC50: −log10 of the molar value.

Columns and labels:
KRAS G12D = KRAS G12D (Homo sapiens, UniProt P01116, G12D); assay: KRAS G12D GDP-GTP exchange assay (bodipy-GDP for GppNHp, with SOS1); type: biochemical; conditions: 2.5 nM bodipy loaded KRAS G12D, 4 hours after GppNHp-SOS1; read-out: G12D_exchange (KRAS_G12D exchange assay IC50)
Description: (§1) The inhibitor potency of the exemplified compounds was determined in a fluorescence based guanine nucleotide exchange assay, which measures the exchange of bodipy-GDP (fluorescently labeled GDP) for GppNHp (Non-hydrolyzable GTP analog) to generate the active state of KRAS in the presence of SOS1 (guanine nucleotide exchange factor). Inhibitors were serially diluted in DMSO and a volume of 0.1 μL was transferred to the wells of a black low volume 384-well plate. 5 μL/well volume of bodipy-loaded KRAS G12C diluted to 5 nM in assay buffer (25 mM Hepes pH 7.5, 50 mM NaCl, 10 mM MgCl2 and 0.01% Brij-35) was added to the plate and pre-incubated with inhibitor for 2 hours at ambient temperature. Appropriate controls (enzyme with no inhibitor or with a G12C inhibitor (AMG-510)) were included on the plate. The exchange was initiated by the addition of a 5 μL/well volume containing 1 mM GppNHp and 300 nM SOS1 in assay buffer. The 10 μL/well reaction concentration of the bodipy-loaded KRAS G12C, GppNHp, and SOS1 were 2.5 nM, 500 uM, and 150 nM, respectively. The reaction plates were incubated at ambient temperature for 2 hours, a time estimated for complete GDP-GTP exchange in the absence of inhibitor. For the KRAS G12D and G12V mutants, similar guanine nucleotide exchange assays were used with 2.5 nM as final concentration for the bodipy loaded KRAS proteins and with 4 hours and 3 hours incubation after adding GppNHp-SOS1 mixture for G12D and G12V respectively. A cyclic peptide described to selectively bind G12D mutant (Sakamoto et al., BBRC 484.3 (2017), 605-611) or internal compounds with confirmed binding were used as positive controls in the assay plates. Fluorescence intensities were measured on a PheraStar plate reader instrument (BMG Labtech) with excitation at 485 nm and emission at 520 nm.
(§2) Either GraphPad prism or XLfit was used to analyze the data. The IC50 values were derived by fitting the data to a four parameter logistic equation producing a sigmoidal dose-response curve with a variable Hill coefficient. Prism equation: Y=Bottom+(Top−Bottom)/(1+10^((Log IC50−X)*Hill slope)); XLfit equation: Y=(A+((B−A)/(1+((X/C)^D)))) where X is the logarithm of inhibitor concentration and Y is the response.

KRAS G12V = KRAS G12V (Homo sapiens, UniProt P01116, G12V); assay: KRAS G12V GDP-GTP exchange assay (bodipy-GDP for GppNHp, with SOS1); type: biochemical; conditions: 2.5 nM bodipy loaded KRAS G12V, 3 hours after GppNHp-SOS1; read-out: G12V_exchange (KRAS_G12V exchange assay IC50)
Sequence of KRAS G12V (P01116 1-188 isoform P01116-2 G12V): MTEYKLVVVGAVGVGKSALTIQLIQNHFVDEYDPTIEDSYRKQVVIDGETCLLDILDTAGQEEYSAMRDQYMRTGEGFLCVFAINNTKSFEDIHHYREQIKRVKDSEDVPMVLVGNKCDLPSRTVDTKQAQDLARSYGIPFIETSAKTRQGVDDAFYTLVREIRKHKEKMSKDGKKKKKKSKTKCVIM
Description: as §1, §2

Sequence of KRAS G12D (P01116 1-188 isoform P01116-2 G12D): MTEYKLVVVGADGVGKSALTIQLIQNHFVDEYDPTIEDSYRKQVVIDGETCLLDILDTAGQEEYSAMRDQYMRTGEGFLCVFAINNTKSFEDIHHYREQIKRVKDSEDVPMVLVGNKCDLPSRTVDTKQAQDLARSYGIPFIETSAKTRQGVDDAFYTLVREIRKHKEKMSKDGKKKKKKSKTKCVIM

| pIC50 (KRAS G12D) | pIC50 (KRAS G12V) | SMILES |
| --- | --- | --- |
| ≥ 7.00 | 6.00 to 7.00 | CN1CCC[C@H]1COc1nc2c(F)c(-c3cc(O)cc4ccccc34)c(CCC#N)cc2c2c1c(CO)cn2C1C2CNC1C2 (stereo partly drawn) [Example 46, 3-(1-(2-Azabicyclo[2.1.1]hexan-5-yl)-6-fluoro-3-(hydroxymethyl)-7-(3-hydroxynaphthalen-1-yl)-4-(((S)-1-methylpyrrolidin-2-yl)methoxy)-1H-pyrrolo[3,2-c]quinolin-8-yl)propanenitrile] |
| ≥ 7.00 | 6.00 to 7.00 | CN1CCC[C@H]1COc1nc2c(F)c(-c3cc(O)cc4ccccc34)c(CCC#N)cc2c2c1c(C(=O)NCCO)cn2C1C2CNC1C2 (stereo partly drawn) [Example 44, 1-(2-azabicyclo[2.1.1]hexan-5-yl)-8-(2-cyanoethyl)-6-fluoro-N-(2-hydroxyethyl)-7-(3-hydroxynaphthalen-1-yl)-4-(((S)-1-methylpyrrolidin-2-yl)methoxy)-1H-pyrrolo[3,2-c]quinoline-3-carboxamide] |
| ≥ 7.00 | 6.00 to 7.00 | CN1CCC[C@H]1COc1nc2c(F)c(-c3cc(O)cc4ccccc34)c(CCC#N)cc2c2c1c(-c1cnn(C)c1)cn2C1C2CNC1C2 (stereo partly drawn) [Example 38, 3-(1-(2-azabicyclo[2.1.1]hexan-5-yl)-6-fluoro-7-(3-hydroxynaphthalen-1-yl)-3-(1-methyl-1H-pyrazol-4-yl)-4-(((S)-1-methylpyrrolidin-2-yl)methoxy)-1H-pyrrolo[3,2-c]quinolin-8-yl)propanenitrile] |
